# Results published in patent publication US7469185B2, “Primary rat hepatocyte toxicity modeling” (Ocimum Biosolutions, Inc., priority 2002, dated 2008).
# Key:
# [1] = in vitro; settings: male, Sprague-Dawley, rat
# Description: (§1) Identification of toxicity markers was performed by microarray analysis and by the AlamarBlue® assay, a classical measure of cytotoxicity. The AlamarBlue® assay was performed in triplicate.
# (§2) The source of the primary rat hepatocytes was Sprague Dawley Outbred CDs Rats (CRL:CD®[SD] IGS BR, Charles River Laboratories). […] Primary rat hepatocytes were received the day after the cells were removed from the animals. After arrival, the cells, the cells were incubated overnight (˜15 hrs) before the toxin was added to the cultures. […] Toxin or vehicle was administered to hepatocyte cultures as follows. For each treatment, i.e., vehicle alone, vehicle+toxin at low dose, or vehicle+toxin at high dose, cells were harvested after 3, 6 and 24-hour incubations with the toxin solution or with the vehicle.
# (§3) The AlamarBlue® assay was performed as follows, using only the 24-hour time point samples. • 1. […] The culture medium (HIM) was removed from each well and replaced with 500 μl of fresh HIM following arrival of the cells, and the cells were incubated overnight (approximately 15 hrs) at 37° C., 5% CO2. • 3. The next day, the HIM was removed and 500 μl of the medium containing either vehicle or a dose of toxin was added. • 4. Lysis solution was used as a negative control. 450 μl medium+50 μl 9% Triton X100 were added to each of 3 wells containing cells, for a final Triton concentration of 1%. • 5. The cells in all wells were incubated for 24 hours at 37° C., 5% CO2. • 6. HIM medium was removed, and a solution containing 500 μl of fresh HIM medium+50 μl AlamarBlue® (BioSource International, Inc., Cat. No. DAL1100) was added to each well. • 7. The cells were incubated at 37° C., 5% CO2 for 2 hours. • 8. 100 μl medium was removed from each well of the 24-well plate and added to a well of a 96-well plate. […] Alternatively, two absorbance readings can be measured for the oxidized (600 nm) and the reduced (570 nm) form of AlamarBlueg. After obtaining absorbance readings, results were calculated according to the manufacturer's protocol provided in the product description. • 9. The data were evaluated to determine whether or not the toxin reduced cell viability. If so, the dose of the toxin that reduced cell viability by ˜10-20% was determined. Collection of RNA from Rat Hepatocytes
# [2] = test system: primary rat hepatocytes; test: AlamarBlue cell viability assay; settings: 24 hours
# Description: as §1, §2, §3
# [3] = test system: patients; settings: 180 reported cases; cited from earlier work
# [4] = test system: rats; test: Lovastatin dosing of rats, liver tissue examination; format: in vivo, rat
# [5] = oral doses; cited from earlier work
# [6] = test system: male Sprague Dawley (SD) rats; settings: within 48 hours post dose; 0.1, 1, 2, 3, 4 mL/kg ip; […] po; cited from earlier work
# [7] = test system: patients; settings: human, in vivo; cited from earlier work
# [8] = test system: rats; test: AY-25329 14 day rat study: serum chemistry and light microscopy; format: in vivo
# Text: The present inventors have noted indications of liver and renal effects of AY-25329 by changes in serum chemistry. […] Most of these markers of renal and liver dysfunction remained altered throughout the 14 day study period.
compound,measurement,setting,value
NC(=O)N1c2ccccc2C=Cc2ccccc21 [Carbamazepine],"viability at 24 h, 0.01 mM",[1],~100%
same,"viability at 24 h, 1 mM",[1],~90%
CN(C)CCCN1c2ccccc2Sc2ccc(Cl)cc21 [Chlorpromazine],"viability at 24 h, 3 uM",[1],~100%
O=C(O)c1cc(-c2ccc(F)cc2F)ccc1O [Diflunisal],"viability at 24 h, 30 uM",[1],~100%
same,"viability at 24 h, 300 uM",[1],85 to 90%
NN [Hydrazine],"viability at 24 h, 0.1 mM",[1],90 to 95%
same,"viability at 24 h, 1 mM",[1],80 to 85%
C#C[C@]1(O)CC[C@H]2[C@@H]3CCc4cc(O)ccc4[C@H]3CC[C@@]21C [17α-ethinylestradiol],% viability by AlamarBlue test,[2]; high dose 100 uM,~80%
same,% viability by AlamarBlue test,[2]; low dose 10 uM,~100%
"S=C=Nc1cccc2ccccc12 [ANIT, α-naphthylisothiocyanate]","viability at 24 h, 25 uM",[1],~100%
same,"viability at 24 h, 250 uM",[1],~60%
Cc1cccc(Nc2cc(Cl)nc(SCC(=O)O)n2)c1C [Wy-14643],"viability at 24 h, 10 uM",[1],~100%
same,"viability at 24 h, 100 uM",[1],~90%
CC(=O)O[C@]1(C(C)=O)CC[C@H]2[C@@H]3C=C(Cl)C4=CC(=O)[C@@H]5C[C@@H]5[C@]4(C)[C@H]3CC[C@@]21C [Cyproterone acetate],"viability at 24 h, 40 uM",[1],~100%
same,"viability at 24 h, 400 uM",[1],65 to 70%
CN(Cc1cnc2nc(N)nc(N)c2n1)c1ccc(C(=O)N[C@@H](CCC(=O)O)C(=O)O)cc1 [Methotrexate],"viability at 24 h, 1 mM",[1],~100%
same,"viability at 24 h, 10 mM",[1],~90%
CCOC(=O)C(C)(C)Oc1ccc(Cl)cc1 [Clofibrate],"viability at 24 h, 0.5 mM",[1],~100%
same,"viability at 24 h, 5 mM",[1],80 to 85%
O=C(O)Cc1ccccc1Nc1c(Cl)cccc1Cl [Diclofenac],"viability at 24 h, 55 uM",[1],~100%
same,"viability at 24 h, 550 uM",[1],~70%
same,"jaundice, share of the symptomatic patients",[3],75%
CC[C@H](C)C(=O)O[C@H]1C[C@@H](C)C=C2C=C[C@H](C)[C@H](CC[C@@H]3C[C@@H](O)CC(=O)O3)[C@H]21 [Lovastatin],"viability at 24 h, 0.1 mM",[1],~100%
same,"viability at 24 h, 1 mM",[1],~100%
same,effects in liver tissue,"[4]; 9 or 90 mg/kg twice a day, after 6 or after 24 hours",no effects were noted
same,effects in liver cells,[4]; after 14 days of treatment at the higher dosage (90 mg/kg twice a day),abnormal vacuolization of the cytoplasm
same,metabolites excreted in the urine,[5],less than 13%
"Cc1ccc(C)c(OCCCC(C)(C)C(=O)O)c1 [Gemfibrozil, gemfibrozil]","viability at 24 h, 0.3 mM",[1],~100%
same,"viability at 24 h, 3 mM",[1],~50%
CC/C(=C(\c1ccccc1)c1ccc(OCCN(C)C)cc1)c1ccccc1 [Tamoxifen],"viability at 24 h, 4 uM",[1],~100%
same,"viability at 24 h, 40 uM",[1],~45%
CCC1(c2ccccc2)C(=O)NC(=O)NC1=O [Phenobarbital],"viability at 24 h, 0.8 mM",[1],~100%
same,"viability at 24 h, 8 mM",[1],> 95%
"ClC(Cl)(Cl)Cl [CCl4, carbon tetrachloride]","viability at 24 h, 0.1 mM",[1],~100%
same,"viability at 24 h, 10 mM",[1],80 to 85%
same,"ALT and AST peak levels, fold increases",[6],5-10 fold
COc1ccc2c(c1)c(CC(=O)O)c(C)n2C(=O)c1ccc(Cl)cc1 [Indomethacin],"viability at 24 h, 0.1 mM",[1],~100%
same,"viability at 24 h, 1 mM",[1],85 to 90%
"CCCC(CCC)C(=O)O [Valproate, n-dipropylacetic acid]","viability at 24 h, 0.4 mg/ml",[1],~100%
same,patients with elevated levels of hepatic enzymes,[7],about 40%
"CN(C)N=O [DMN, dimethylnitrosamine]",% viability by AlamarBlue test,[2]; high dose 100 mM,~80-85%
same,% viability by AlamarBlue test,[2]; low dose 1 mM,~100%
O=C(CCN1CCN2CCCC2C1)N1c2ccccc2Sc2ccc(Cl)cc21 (stereo not shown) [AY-25329],"viability at 24 h, 5 uM",[1],~100%
same,"viability at 24 h, 50 uM",[1],~90%
same,"light microscopic analysis, effects in the liver",[8]; 6 and 24 hours,increased number of hepatocytic mitotic figures and decreased glycogen content
same,findings after repeated dosing,"[8]; 14 days of repeated dosing, 250 mg/kg/day",nephrosis and alterations in the peripheral lobes of the liver and in the cytoplasm of hepatocytes
same,"serum levels of creatinine, BUN, ALT, triglycerides and cholesterol",[8]; as early as 6 hours after the first dose,statistically significant increases
CN(C)[C@@H]1C(O)=C(C(N)=O)C(=O)[C@@]2(O)C(O)=C3C(=O)c4c(O)cccc4[C@@](C)(O)[C@H]3C[C@@H]12 [Tetracycline],"viability at 24 h, 0.1 mM",[1],~100%
same,"viability at 24 h, 1 mM",[1],85 to 90%
